PubChem BioAssay AID743016 (Vanderbilt Specialized Chemistry Center, 2013)

Target: Mas-related G-protein coupled receptor member X1 (Homo sapiens) (UniProt Q96LB2)
Assay: MrgX1 positive allosteric modulators, dose response, cell-based, HEK293, calcium flux, BAM8-22 (AID 743016)
Conditions: HEK293-MrgX1, Fluo4 calcium flux, BAM8-22 potentiation; with BAM 0.1 µM

Sequence of Mas-related G-protein coupled receptor member X1 (Homo sapiens) (Q96LB2 whole entry, looked up): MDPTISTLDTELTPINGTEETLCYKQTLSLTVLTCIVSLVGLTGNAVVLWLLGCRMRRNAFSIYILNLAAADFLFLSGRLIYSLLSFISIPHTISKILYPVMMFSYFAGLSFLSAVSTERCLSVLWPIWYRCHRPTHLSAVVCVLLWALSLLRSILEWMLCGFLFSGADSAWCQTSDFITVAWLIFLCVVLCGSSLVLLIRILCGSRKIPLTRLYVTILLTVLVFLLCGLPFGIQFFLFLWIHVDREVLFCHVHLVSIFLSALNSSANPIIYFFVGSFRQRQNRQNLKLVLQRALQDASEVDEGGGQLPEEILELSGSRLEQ

Row | EC50 | Structure (SMILES)
1 | 380 nM | CCOc1ccccc1NC(=O)c1ccccc1NS(=O)(=O)CCCl
2 | 2910 nM | COc1ccc(NC(=O)c2ccccc2NS(=O)(=O)c2cccnc2Cl)c(OC)c1
3 | 2340 nM | COc1ccc(C)cc1NC(=O)c1ccccc1NS(C)(=O)=O
4 | 1820 nM | CCOc1ccccc1NC(=O)c1ccccc1NS(=O)(=O)C(C)C
5 | 420 nM | CSc1ccccc1NC(=O)c1ccccc1NS(C)(=O)=O
6 | 1010 nM | COc1ccc(Cl)cc1NC(=O)c1ccccc1NS(C)(=O)=O
7 | 3060 nM | COc1ccccc1NC(=O)c1ccccc1NS(C)(=O)=O
8 | 150 nM | COc1ccc(NC(=O)c2ccccc2NS(C)(=O)=O)c(OC)c1
9 | 500 nM | CSc1ccccc1NC(=O)c1ccccc1N(C)S(C)(=O)=O
10 | 1570 nM | COC(=O)c1ccccc1NC(=O)c1ccccc1N(C)S(C)(=O)=O
11 | 1910 nM | CCOc1ccccc1NC(=O)c1ccccc1NS(C)(=O)=O
12 | 4470 nM | CCOc1ccccc1NC(=O)c1ccccc1NS(=O)(=O)CC1CC1
13 | 190 nM | CCOc1ccccc1NC(=O)c1ccccc1NS(=O)(=O)C1CC1
14 | 910 nM | CCOc1ccccc1NC(=O)c1ccccc1NS(=O)(=O)CC
15 | 1390 nM | CCOc1ccccc1NC(=O)c1ccccc1N(C)S(C)(=O)=O
